Patent US10253002B2, “Compounds and methods of treating infections” (Neoculi Pty Ltd., priority 2013, dated 2019)
Values after ≈ are worked out from the molar mass of the structure shown. Values joined by “and” are separate entries in the source; they are usually repeats but may differ in a detail not shown here. Equal values may be shown once.

Columns and labels:
[1] = tested on: S. aureus isolates (HA-MRSA, CA-MRSA, methicillin-susceptible staphylococci); test: Kirby-Bauer disc diffusion resistotyping, Example 4; assay type: cell-based, Staphylococcus aureus; settings: for Total isolates resistant (Kirby-Bauer disc diffusion): all isolates (n = 30)
Summary of the method: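 CLSI Kirby-Bauer disc diffusion on Mueller-Hinton agar. Overnight SBA cultures (37 °C) were suspended in saline and adjusted to 0.5 McFarland before spreading. Antibiotic discs were read after 24 h at 37 °C.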

S. pneumoniae isolates [2] = test: Disk diffusion susceptibility (CLSI/EUCAST), Example 5; assay type: cell-based, Streptococcus pneumoniae
Summary of the method: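 Susceptibility to 12 antimicrobials was categorised (S/I/R) using CLSI breakpoints from zones of complete inhibition, read thrice to the nearest millimetre with the mode taken. Incubation was 16–24 h, 37 °C, 5% CO2.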

S. pneumoniae isolates [3] = test: Micro-broth dilution MIC, Example 5; assay type: cell-based, Streptococcus pneumoniae; settings: Streptococcus pneumoniae, isolate D39; Table 28
Method: For all in vitro assays, fresh pneumococcal isolates were grown overnight (O/N) on horse blood agar (HBA) plates (39 g/L Columbia blood agar base [Oxoid] 5% [v/v] defribinated horse blood [Oxoid] at 37° C. with 5% supplemented CO2). Mueller-Hinton blood agar with 5% defibrinated sheep blood (MHSBA Roseworthy Media and Blood Service) was used for disk diffusion analysis as directed by Clinical Laboratory Standards Institute (CLSI) standards. Pneumococci were routinely grown in broth consisting of 4% lysed horse blood (LHB) with Cation Adjusted Mueller Hinton Broth (CAHMB, [Difco]) at 37° C. with 5% supplemented CO2. […] Isolates were stored in HSB at −80° C.
(§1) [Micro-broth dilutions and 96 well trays are prepared by the following method: 90 μL of 4% LHB:CAMHB is aliquotted into all wells using a multichannel pipette. 90 μL of working antimicrobial stocks were no serial diluted down the tray by a 1:2 dilution. Negative broth controls and dilution control were taken into account when planning the set up of a 96 well tray.] 10 μL of bacterial suspension was then added to the appropriate wells in the 96 well tray. Appropriate positive (no antimicrobial), negative (no antimicrobial or bacteria) and negative dilution (a serial dilution control of antimicrobial and broth) controls were included in each assay. […] The MBC was determined by a 99.95% inhibition of S. pneumoniae, taking into account the dilution factor. MICs and MBCs were determined in quadruplicate and the mode was taken as the representative value. The MIC50, MIC90 and MIC range and MBC50, MBC90 and MBC range were determined according to CLSI standards. The MIC50 and MIC90, or MBC50 and MBC90, are defined by the lowest concentrations which, when all the MICs and MBCs of the isolates are arranged from lowest to highest, inhibited the 50th and 90th percentile of the total amount of isolates, respectively.

[4] = tested on: Staphylococcus aureus T3-129 / Staphylococcus spp. MK1; test: Synergy studies, checkerboard method (FIC index); assay type: cell-based; settings: S. aureus strain T3-29
S. pneumoniae isolates [5] = test: MBC, Example 5; assay type: cell-based, Streptococcus pneumoniae; settings: Streptococcus pneumoniae, isolate D39; Table 28; read-out: MBC
Method: as §1

Pseudomonas aeruginosa = test: Broth microdilution MIC, Example 7 (NCL812 and analogues); assay type: cell-based; settings: for MIC (μg/ml) at 24 hours Pseudomonas #008: Pseudomonas #008, 24 hours
MRSA = test: as above; assay type: cell-based, Staphylococcus aureus
Summary of the method: (§2)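 MICs in μg/ml were read as growth inhibition by eye, checked at 600 nm absorbance against drug-free wells, following CLSI broth microdilution. Strains: two MRSA, two VRE; duplicates, repeated once more when results diverged beyond one dilution step.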

Escherichia coli = test: as above; assay type: cell-based; settings: for MIC (μg/ml) at 24 hours E. coli ATCC25922: E. coli ATCC25922, 24 hours
[6] = tested on: Gram-negative bacteria (E. coli and Pseudomonas aeruginosa); test: Testing of NCL812 analogues, Gram-negative antibacterial activity; assay type: cell-based; settings: MIC testing
Method: Minimum inhibitory concentrations (μg/ml) were determined using the broth microdilution method recommended by the Clinical and Laboratory Standards Institute (CLSI). MIC breakpoints were determined by visual assessment and then confirmed using an ELISA plate reader, measuring absorbance levels at 600 nm. Bacterial growth (turbidity) in the wells with antimicrobial was compared with the amount of growth (turbidity) in the growth-control well (containing no antimicrobial). All isolates were tested in duplicate, if there was a difference of greater than one two-fold dilution in the results, the test was repeated a third time. The purity of the isolates was closely monitored during testing by subculturing the prepared bacterial inoculum onto SBA (sheep blood agar). The MICs of the control strains for the antimicrobial ampicillin were determined for each testing run as an internal quality control. The MIC50, […] and MIC range (minimum and maximum) were calculated for each of the bacterial groups.
MICs were determined against two MRSA strains, two VRE strains and one strain each of E. coli and Pseudomonas aeruginosa.

VRE = test: Broth microdilution MIC, Example 7 (NCL812 and analogues); assay type: cell-based, Enterococcus spp.
Summary of the method: as §2

S. aureus ATCC29213 = test: Broth microdilution MIC, Example 7 (NCL analogues), Table 42; assay type: cell-based, Staphylococcus aureus; settings: S. aureus ATCC29213, 24 hours
E. faecalis #32 = test: as above; assay type: cell-based, Enterococcus faecalis; settings: E. faecalis #32, 24 hours
[7] = 24 hours, 1st and 2nd replicate rows

## CC[C@H]1OC(=O)[C@H](C)[C@@H](O[C@H]2C[C@@](C)(OC)[C@@H](O)[C@H](C)O2)[C@H](C)[C@@H](O[C@@H]2O[C@H](C)C[C@H](N(C)C)[C@H]2O)[C@](C)(O)C[C@@H](C)C(=O)[C@H](C)[C@@H](O)[C@]1(C)O [Erythromycin]
[1]; CA-MRSA (n = 10)
  isolates resistant (Kirby-Bauer disc diffusion): 100.00%
[1]; HA-MRSA (n = 10)
  isolates resistant (Kirby-Bauer disc diffusion): 80.00%
[1]; Methicillin-susceptible staphylococci (n = 10)
  isolates resistant (Kirby-Bauer disc diffusion): 40.00%
[1]
  Total isolates resistant (Kirby-Bauer disc diffusion): 73.33%
[1]; listed as erythromycin
  Total isolates resistant (Kirby-Bauer disc diffusion): 73.33%
S. pneumoniae isolates [2]; A66.1
  disk diffusion zone diameter: 33 mm
S. pneumoniae isolates [2]; D39
  disk diffusion zone diameter: 35 mm
S. pneumoniae isolates [2]; EF3030
  disk diffusion zone diameter: 30 mm
S. pneumoniae isolates [2]; L82016
  disk diffusion zone diameter: 29 mm
S. pneumoniae isolates [2]; P9
  disk diffusion zone diameter: 32 mm
S. pneumoniae isolates [2]; P21
  disk diffusion zone diameter: 35 mm
S. pneumoniae isolates [2]; TIGR4
  disk diffusion zone diameter: 34 mm
S. pneumoniae isolates [2]; WCH16
  disk diffusion zone diameter: 34 mm
S. pneumoniae isolates [2]; WCH43
  disk diffusion zone diameter: 29 mm
S. pneumoniae isolates [2]; WCH46
  disk diffusion zone diameter: 27 mm
S. pneumoniae isolates [2]; WCH57
  disk diffusion zone diameter: 41 mm
S. pneumoniae isolates [2]; WCH77
  disk diffusion zone diameter: 37 mm
S. pneumoniae isolates [2]; WCH86
  disk diffusion zone diameter: 30 mm
S. pneumoniae isolates [2]; WCH89
  disk diffusion zone diameter: 35 mm
S. pneumoniae isolates [2]; WCH92
  disk diffusion zone diameter: 28 mm
S. pneumoniae isolates [2]; WCH137
  disk diffusion zone diameter: 34 mm
S. pneumoniae isolates [2]; WCH158
  disk diffusion zone diameter: 34 mm
S. pneumoniae isolates [2]; WCH184
  disk diffusion zone diameter: 10 mm
S. pneumoniae isolates [2]; WCH184 (Table 19)
  disk diffusion susceptibility category: R
S. pneumoniae isolates [2]; WCH211
  disk diffusion zone diameter: 33 mm
S. pneumoniae isolates [2]; WU2
  disk diffusion zone diameter: 34 mm
S. pneumoniae isolates [2]; isolate D39
  Resistance status to Erythromycin: Sensitive
S. pneumoniae isolates [3]
  MIC: 2.75 ng/mL (≈ 0.00375 µM)
[4]; FIC index of antibiotic with NCL812
  FICI: 0.75 and 0.562 and 0.5 and 0.531
[4]; antibiotic alone
  Antibiotic MIC Alone: 0.25 µg/mL
[4]; antibiotic with NCL812
  Result (interaction with NCL812): NE (No effect (NE) was defined as 0.5<FICI<4)
S. pneumoniae isolates [5]
  MBC: 2.75 ng/mL (≈ 0.00375 µM)

## Cl.N=C(N)N/N=C/c1ccc(Cl)cc1 [NCL030]
Pseudomonas aeruginosa; [7]
  MIC (μg/ml) at 24 hours, P. aeruginosa: 128 µg/mL
MRSA; MIC testing, two MRSA strains
  activity against MRSA among analogues: greatest activity
MRSA; isolate MRSA 1, 24 hours, 1st and 2nd replicate rows
  MIC (μg/ml) at 24 hours, MRSA 1: 128 µg/mL
MRSA; isolate MRSA 2, 24 hours, 1st and 2nd replicate rows
  MIC (μg/ml) at 24 hours, MRSA 2: 128 µg/mL
Escherichia coli; [7]
  MIC (μg/ml) at 24 hours, E. coli: >128 µg/mL
[6]
  level of Gram-negative antibacterial activity among analogues: highest level of Gram-negative antibacterial activity
VRE; MIC testing, two VRE strains
  activity against VRE among analogues: greatest activity
VRE; isolate VRE 1, 24 hours, 1st and 2nd replicate rows
  MIC (μg/ml) at 24 hours, VRE 1: 64 µg/mL
VRE; isolate VRE 2, 24 hours, 1st and 2nd replicate rows
  MIC (μg/ml) at 24 hours, VRE 2: 64 µg/mL

## C/C(=N\Nc1cc(N/N=C(\C)c2ccc(Cl)cc2)ncn1)c1ccc(Cl)cc1 [NCL 178]
Pseudomonas aeruginosa
  MIC (μg/ml) at 24 hours Pseudomonas #008: >64 µg/mL
S. aureus ATCC29213
  MIC (μg/ml) at 24 hours S. aureus ATCC29213: >64 µg/mL
Escherichia coli
  MIC (μg/ml) at 24 hours E. coli ATCC25922: >64 µg/mL
E. faecalis #32
  MIC (μg/ml) at 24 hours E. faecalis #32: >64 µg/mL

## Nc1nc(N/N=C/c2ccc(Cl)cc2)cc(N/N=C/c2ccc(Cl)cc2)n1 [NCL 179]
Pseudomonas aeruginosa
  MIC (μg/ml) at 24 hours Pseudomonas #008: >64 µg/mL
S. aureus ATCC29213
  MIC (μg/ml) at 24 hours S. aureus ATCC29213: 4 µg/mL (≈ 9.99 µM)
Escherichia coli
  MIC (μg/ml) at 24 hours E. coli ATCC25922: >64 µg/mL
E. faecalis #32
  MIC (μg/ml) at 24 hours E. faecalis #32: 8 µg/mL (≈ 20 µM)

## OC/C(=N\Nc1cc(N/N=C(\CO)c2ccc(Cl)cc2)ncn1)c1ccc(Cl)cc1 [NCL 180]
Pseudomonas aeruginosa
  MIC (μg/ml) at 24 hours Pseudomonas #008: >64 µg/mL
S. aureus ATCC29213
  MIC (μg/ml) at 24 hours S. aureus ATCC29213: >64 µg/mL
Escherichia coli
  MIC (μg/ml) at 24 hours E. coli ATCC25922: >64 µg/mL
E. faecalis #32
  MIC (μg/ml) at 24 hours E. faecalis #32: 64 µg/mL (≈ 144 µM)

## Clc1ccc(/C=N/Nc2cc(N/N=C/c3ccc(Cl)cc3)ncn2)cc1 [NCL 181]
Pseudomonas aeruginosa
  MIC (μg/ml) at 24 hours Pseudomonas #008: >64 µg/mL
S. aureus ATCC29213
  MIC (μg/ml) at 24 hours S. aureus ATCC29213: >64 µg/mL
Escherichia coli
  MIC (μg/ml) at 24 hours E. coli ATCC25922: >64 µg/mL
E. faecalis #32
  MIC (μg/ml) at 24 hours E. faecalis #32: >64 µg/mL

## CC(Nc1cc(Cl)nc(N)n1)c1ccccc1 (centres unmarked) [NCL 182]
Pseudomonas aeruginosa
  MIC (μg/ml) at 24 hours Pseudomonas #008: >64 µg/mL
S. aureus ATCC29213
  MIC (μg/ml) at 24 hours S. aureus ATCC29213: >64 µg/mL
Escherichia coli
  MIC (μg/ml) at 24 hours E. coli ATCC25922: >64 µg/mL
E. faecalis #32
  MIC (μg/ml) at 24 hours E. faecalis #32: >64 µg/mL

## CC(Nc1cc(NC(C)c2ccccc2)ncn1)c1ccccc1 (centres unmarked) [NCL 183]
Pseudomonas aeruginosa
  MIC (μg/ml) at 24 hours Pseudomonas #008: >64 µg/mL
S. aureus ATCC29213
  MIC (μg/ml) at 24 hours S. aureus ATCC29213: >64 µg/mL
Escherichia coli
  MIC (μg/ml) at 24 hours E. coli ATCC25922: >64 µg/mL
E. faecalis #32
  MIC (μg/ml) at 24 hours E. faecalis #32: >64 µg/mL
